Earlier results, collected in patent publication US20150050333A1, “PHARMACEUTICAL COMPOSITION COMPRISING OLMESARTAN MEDOXOMIL AND ROSUVASTATIN OR ITS SALT” (priority 2012, published 2015).

System: CYP450

SMILES | Metabolism of olmesartan medoxomil by CYP450 (after in vivo absorption) | Portion of rosuvastatin that is metabolized (metabolized mainly by CYP 2C9 and CYP 2C19) [%]
CCCc1nc(C(C)(C)O)c(C(=O)OCc2oc(=O)oc2C)n1Cc1ccc(-c2ccccc2-c2nnn[nH]2)cc1 [Olmesartan medoxomil] | not metabolized by CYP450 | –
CC(C)c1nc(N(C)S(C)(=O)=O)nc(-c2ccc(F)cc2)c1/C=C/[C@@H](O)C[C@@H](O)CC(=O)O [rosuvastatin] | – | 10
